Experimental data taken from US4344949A, “Substituted acyl derivatives of 1,2,3,4-tetrahydroisoquinoline-3-carboxylic acids” (Warner-Lambert Company, priority 1981, dated 1982).
Counter-ions that a name gives are not always drawn.

Target: T1, guinea pig serum ACE (angiotensin converting enzyme) (Cavia porcellus, UniProt H0UWL7)
T1 construct: ACE from guinea pig serum; from tissue; host or cells: guinea pig serum
T1 sequence (H0UWL7 33-1302): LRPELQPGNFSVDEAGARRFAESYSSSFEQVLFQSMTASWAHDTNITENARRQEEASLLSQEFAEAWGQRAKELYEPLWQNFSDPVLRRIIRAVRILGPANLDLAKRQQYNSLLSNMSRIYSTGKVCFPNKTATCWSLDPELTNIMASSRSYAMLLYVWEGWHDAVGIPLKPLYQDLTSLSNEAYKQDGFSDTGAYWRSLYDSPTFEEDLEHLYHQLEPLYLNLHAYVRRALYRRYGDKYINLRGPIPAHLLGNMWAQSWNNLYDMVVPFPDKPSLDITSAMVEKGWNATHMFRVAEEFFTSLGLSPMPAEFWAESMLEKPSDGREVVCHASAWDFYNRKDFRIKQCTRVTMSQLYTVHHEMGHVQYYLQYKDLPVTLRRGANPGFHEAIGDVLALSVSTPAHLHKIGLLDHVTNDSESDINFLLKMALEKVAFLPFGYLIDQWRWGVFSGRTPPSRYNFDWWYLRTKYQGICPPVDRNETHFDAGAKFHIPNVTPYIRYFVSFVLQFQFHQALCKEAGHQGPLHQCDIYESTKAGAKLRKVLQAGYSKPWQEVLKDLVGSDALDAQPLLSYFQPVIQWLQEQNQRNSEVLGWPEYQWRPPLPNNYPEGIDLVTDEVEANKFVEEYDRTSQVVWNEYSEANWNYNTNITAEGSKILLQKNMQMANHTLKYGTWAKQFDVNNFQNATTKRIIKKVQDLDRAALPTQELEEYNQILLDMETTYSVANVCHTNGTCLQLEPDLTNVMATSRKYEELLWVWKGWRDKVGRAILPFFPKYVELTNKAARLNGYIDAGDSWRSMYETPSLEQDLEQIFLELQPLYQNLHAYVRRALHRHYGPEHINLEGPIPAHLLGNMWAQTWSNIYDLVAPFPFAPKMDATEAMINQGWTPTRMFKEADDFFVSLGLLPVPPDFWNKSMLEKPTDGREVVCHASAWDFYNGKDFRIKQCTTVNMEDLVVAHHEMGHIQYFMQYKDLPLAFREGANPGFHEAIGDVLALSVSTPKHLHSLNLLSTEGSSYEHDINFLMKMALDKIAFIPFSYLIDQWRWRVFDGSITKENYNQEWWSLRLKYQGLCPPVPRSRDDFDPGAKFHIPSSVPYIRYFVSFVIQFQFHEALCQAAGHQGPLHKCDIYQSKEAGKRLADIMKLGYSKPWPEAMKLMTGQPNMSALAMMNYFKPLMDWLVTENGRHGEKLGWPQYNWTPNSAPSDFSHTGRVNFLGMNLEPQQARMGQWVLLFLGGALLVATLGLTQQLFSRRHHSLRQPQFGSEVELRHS
Assay: In vitro ACE assay (angiotensin converting enzyme inhibitory activity, guinea pig serum ACE, 3H-hippuryl-glycyl-glycine substrate)
Assay type: biochemical
Settings: 10 min preincubation, 60 min incubation at 37° C., S,S,S configuration, hydrochloride salt (+) or maleate salt (#) by footnote, read-out: ACE I Activity (in vitro) IC50 Molar Conc.
Description: In vitro ACE Assay: Angiotensin converting enzyme (ACE) inhibitory activity was determined by assaying guinea pig serum ACE in the presence and absence of the test compound. ACE from guinea pig serum and the test compounds were preincubated for 10 minutes before the addition of the labelled substrate ^3 H-hippuryl-glycyl-glycine. After a 60 minute incubation of 37° C. the reaction was stopped by the addition of 0.1 N HCl. ACE cleaves the hippuryl-glycyl bond to form the dipeptide glycyl-glycine and ^3 H-hippuric acid. The ^3 H-hippuric acid was then extracted with ethyl acetate and the ACE activity of a given sample calculated as the amount of ^3 H-hippuric acid generated.

IC50 [nM]	SMILES
2000	CCOC(=O)[C@H](CCc1ccccc1)N[C@@H](C)C(=O)N1Cc2ccccc2C[C@H]1C(=O)OCc1ccccc1 [R=PhCH2, R2=Et, X=H, Y=H, 2-[2-[[1-(Ethoxycarbonyl)-3-phenylpropyl]amino]-1-oxopropyl]-1,2,3,4-tetrahydro-3-isoquinolinecarboxylic Acid, Phenylmethyl Ester, Maleate (S,S,S)]
300	CCOC(=O)[C@H](CCc1ccccc1)N[C@@H](C)C(=O)N1Cc2cc(OC)c(OC)cc2C[C@H]1C(=O)OCc1ccccc1 [R=PhCH2, R2=Et, X=OCH3, Y=OCH3, 2-[2-[[1-(Ethoxycarbonyl)-3-phenylpropyl]amino]-1-oxopropyl]-1,2,3,4-tetrahydro-6,7-dimethoxy-3-isoquinolinecarboxylic Acid, Phenylmethyl Ester, Maleate (S,S,S)]
3200	CCOC(=O)[C@H](CCc1ccccc1)N[C@@H](C)C(=O)N1Cc2ccccc2C[C@H]1C(=O)OC(C)(C)C [R=t-Bu, R2=Et, X=H, Y=H]
5.6	CCOC(=O)[C@H](CCc1ccccc1)N[C@@H](C)C(=O)N1Cc2cc(OC)c(OC)cc2C[C@H]1C(=O)O [R=H, R2=Et, X=OCH3, Y=OCH3, 2-[2-[[1-(Ethoxycarbonyl)-3-phenylpropyl]amino]-1-oxopropyl]-1,2,3,4-tetrahydro-6,7-dimethoxy-3-isoquinolinecarboxylic Acid, Hydrochloride, Hydrate (S,S,S)]
